This is an account of results in ChEMBL document CHEMBL1133152, “Design and synthesis of mimics of S-adenosyl-L-homocysteine as potential inhibitors of erythromycin methyltransferases” (Bioorg Med Chem Lett, 2000).

Experiment [1] is described as follows: The compound was tested for its ability to inhibit ErmC methylase; Range 50-100.
The nature of experiment [2]: The compound was tested for its ability to inhibit ErmC methylase at 100 uM.
Experiment [3] has as its target T1, rRNA adenine N-6-methyltransferase (Streptococcus pneumoniae, UniProt P21236).
T1 sequence (P21236 whole entry): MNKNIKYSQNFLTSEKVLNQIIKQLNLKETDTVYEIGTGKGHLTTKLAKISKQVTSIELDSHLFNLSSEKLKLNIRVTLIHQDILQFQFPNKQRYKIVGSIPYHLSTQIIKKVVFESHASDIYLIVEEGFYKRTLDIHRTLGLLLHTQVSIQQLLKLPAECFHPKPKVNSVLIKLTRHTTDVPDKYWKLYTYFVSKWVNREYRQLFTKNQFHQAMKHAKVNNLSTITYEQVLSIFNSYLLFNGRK
Put plainly: Inhibition of ErmAM methylase.

The nature of experiment [4]: The compound was tested for its ability to inhibit ErmAM methylase at 100 uM.
The nature of experiment [5]: The compound was tested for its ability to inhibit ErmC methylase.
Experiment [6] is described as follows: The compound was tested for its binding ability to inhibit ErmAM methylase.

Turning to `Nc1nc(CC2O[C@H](CSCCc3ccccc3)[C@@H](O)[C@H]2O)nc(NC2Cc3ccccc3C2)n1` (stereo not given in full), the Ki in experiment [1] was 100 µM; in experiment [3], over 100 µM. The inhibition in experiment [2] amounted to 39.9%; in experiment [4] it was 18%.

Consider `Nc1nc(C[C@@H]2O[C@H](COC/C=C/c3ccccc3)[C@@H](O)[C@H]2O)nc(NC2Cc3ccccc3C2)n1`, for which the values for the Ki in experiment [5] and in experiment [3] were about 60 µM and about 90 µM, respectively.

For `Nc1nc(CC2O[C@H](COCc3ccccc3)[C@@H](O)[C@H]2O)nc(NC2Cc3ccccc3C2)n1` (stereo not given in full), the inhibition in experiment [2] stood at 5.5%; in experiment [4], 16.9%. The Ki in experiment [3] was over 100 µM.

For the compound `Nc1nc(CC2O[C@H](CSCc3ccccc3)[C@@H](O)[C@H]2O)nc(NC2Cc3ccccc3C2)n1` (stereo not given in full), the inhibition in experiment [2] and in experiment [4] was 10% throughout. Further, the Ki in experiment [5] and in experiment [3] was over 100 µM throughout.

As to `Nc1nc(NC2Cc3ccccc3C2)nc([C@H]2C[C@@H](O)[C@H](O)[C@H](OCc3ccccc3)C2)n1`, the inhibition in experiment [2] is 17.7%; in experiment [4] it was 9.9%. Besides, the Ki in experiment [5] and in experiment [3] was over 100 µM each time.

For the compound `Nc1nc(CC2O[C@H](CSc3ccccc3)[C@@H](O)[C@H]2O)nc(NC2Cc3ccccc3C2)n1` (stereo not given in full), the figures for the inhibition in experiment [2] and in experiment [4] were 28% and 3.4%, respectively. The Ki in experiment [5] and in experiment [3] was over 100 µM throughout.

Take `Nc1nc(NC2Cc3ccccc3C2)nc(N2CCCCC2)n1`: in experiment [6], the Ki worked out at 8 µM.

Compound `Nc1nc(NC2Cc3ccccc3C2)cc(-c2ccc(NCCCc3ccccc3O)cc2)n1` returned a Ki in experiment [6] of 10 µM.

With `Nc1nc(CC[C@@H]2O[C@H](COCc3ccc(Br)cc3)[C@@H](O)[C@H]2O)nc(NC2Cc3ccccc3C2)n1`, the Ki was 100 µM in experiment [1] and about 50 µM in experiment [3]. Besides, the inhibition was 37.5% in experiment [2] and 55% in experiment [4].

In the case of `Nc1nc(C[C@@H]2O[C@H](COCc3ccc(Br)cc3)[C@@H](O)[C@H]2O)nc(NC2Cc3ccccc3C2)n1`, the Ki in experiment [5] is about 40 µM; in experiment [3] it was about 75 µM.

With `Nc1nc(CC2O[C@H](CSCc3ccc(Cl)cc3)[C@@H](O)[C@H]2O)nc(NC2Cc3ccccc3C2)n1` (stereo not given in full), the values for the Ki in experiment [5] and in experiment [3] were about 80 µM and about 55 µM, respectively.

Turning to `Cc1ccc(COC[C@H]2O[C@@H](Cc3nc(N)nc(NC4Cc5ccccc5C4)n3)[C@H](O)[C@@H]2O)cc1`, the inhibition came to 0% in experiment [2] and 15% in experiment [4]. In addition, the Ki in experiment [5] and in experiment [3] was over 100 µM throughout.
